From US20110160311A1, “Sweetness Enhancers, Compositions Thereof, and Methods for Use” (The Coca-Cola Company, priority 2009, published 2011)

Columns and labels:
[1] = Sweetness detection threshold level in water, multi-sip and swallow taste method; assay type: in vivo, human; settings: for Sweetness Detection Threshold Level: in water at room temperature
From the text: As used herein, the terms “sweetness threshold,” “sweetness recognition threshold,” and “sweetness detection threshold” are understood to mean the level at which the lowest known concentration of a certain sweet compound that is perceivable by the human sense of taste and it can vary from person to person. For example, a typical sweetness threshold level for sucrose in water can be 0.5%.
Further for example, the at least one sweetness enhancer to be used can be assayed in water at least 25% lower and at least 25% higher than the sucrose detection level of 0.5% in water to determine the sweetness threshold level.
(§1) A first sip (approximately 2.2 mL) of a ca. 20 mL control composition was taken and swallowed. After waiting for a time ranging from 15 to 25 seconds, a second sip of control composition was taken and swallowed, and the sweetness and/or taste of the control composition was noted. After waiting for a time ranging from 15 to 25 seconds, these steps were repeated with a comparative composition. The sweetness and taste differences between the control and the comparative composition were noted. For each tested composition, this cycle was repeated once to confirm the initial findings. All samples were measured at average 23.0° C.±1° C. between samples for consistent comparison and to minimize any effects of temperature on the perceived taste or sweetness of the composition.
(§2) To perform the taste test, three sweetener samples were paired with one additive and taste tested as described above. A three minute break was taken before tasting another three sweetener samples paired with a different additive. Up to 10 additives per day were used to minimize a fatigue factor. Before tasting, at least 1.5 hours elapsed after ingestion of any food, drink or nicotine. The tests were repeated on a different date to validate the initial findings.
The sweetness detection threshold levels for 21 entities were measured by a single assessor in water at room temperature according to the multi-sip and swallow taste method described herein.

[2] = Sweetness enhancement of glucose, fructose or sucrose at 6% SE in water by additive at its threshold level; assay type: in vivo, human; set-up: key: T: Slight thicker-like sweetness (not intensity factor).; No difference; N(S+): No difference but slightly more sweet (0.5-0.75%); +S: More sweetness intensity (~1.0% SE); ++S: Much more sweetness intensity (~2.0% SE); settings: room temperature, additive at its Table 1 threshold level; for Sensory result versus FRU 55,000 ppm: fructose at 6% SE in water; for Sensory result versus GLU 99,000 ppm: glucose at 6% SE in water; for Sensory result versus SUC 60,000 ppm: sucrose at 6% SE in water
Protocol: as §1, §2
The twenty-one entities above were combined in a concentration at the sweetness detection threshold level listed in Table 1, with one of Glucose (GLU), Fructose (FRU), and Sucrose (SUG), each at a fixed SE (Sucrose Equivalents) level of 6%. The sweetness of the compositions was measured as described above at room temperature.

[3] = By-products of 500 ppm REB A after two months of storage in phosphoric acid at RT; assay type: physicochemical; settings: approximated concentration of by-product of 500 ppm REB A
[4] = value is min. off-taste threshold

Row | Compound | Sweetness Detection Threshold Level ([1]; single assessor) [ppm] | Sensory result versus FRU 55,000 ppm [2] | Sensory result versus GLU 99,000 ppm [2] | Sensory result versus SUC 60,000 ppm [2] | Sweetness Detection Threshold Level [1, 4] [ppm] | Sweetness Threshold Level ([1]; estimation sweetness/off-taste threshold in water at room temperature (RT)) [ppm] | Levels After 2 Month of Storage [3] [ppm]
1 | C=C1C[C@@]23CC[C@H]4[C@@](C)(CCC[C@@]4(C)C(=O)OC4OC(C(=O)O)C(O)C(O)C4O)[C@@H]2CC[C@]1(O)C3 (stereo partly shown) [Steviol glucuronide] | 85 | N | N | N | – | – | –
2 | C=C1CC23CCC4C(C)(C(=O)OC5OC(CO)C(O)C(O)C5O)CCCC4(C)C2CCC1(O)C3 [13-hydroxy-kaur-16-en-18-oic acid β-D-glucopyranosyl ester] | – | N | N | N | 10 | – | –
3 | C[C@@]12CCC[C@@](C)(C(=O)O[C@@H]3O[C@H](CO)[C@@H](O)[C@H](O)[C@H]3O)[C@H]1CC[C@]13C=C(CO)[C@](O[C@@H]4O[C@H](CO)[C@@H](O)[C@H](O[C@@H]5O[C@H](CO)[C@@H](O)[C@H](O)[C@H]5O)[C@H]4O[C@@H]4O[C@H](CO)[C@@H](O)[C@H](O)[C@H]4O)(CC[C@H]12)C3 [13-[(2-O-β-D-glucopyranosyl-3-O-β-D-glucopyranosyl]-β-D-glucopyranosyl)oxy]-17-hydroxy-kaur-15-en-18-oic acid β-D-glucopyranosyl ester] | 250 | N | N | N(S+) (No difference but slightly more sweet (0.5-0.75%)) | – | 250 | 1
4 | CC1=CC23CCC4C(C)(C(=O)OC5OC(CO)C(O)C(O)C5O)CCCC4(C)C2CCC1(OC1OC(CO)C(O)C(OC2OC(CO)C(O)C(O)C2O)C1OC1OC(CO)C(O)C(O)C1O)C3 [13-[(2-O-β-D-glucopyranosyl-3-O-β-D-glucopyranosyl-β-D-glucopyranosyl)oxy] kaur-15-en-18-oic acid β-D-glucopyranosyl ester] | 25 | N(S+) (No difference but slightly more sweet (0.5-0.75%)) | N | N(S+) (No difference but slightly more sweet (0.5-0.75%)) | – | – | –
5 | C[C@H](CC[C@@H](O[C@@H]1O[C@H](CO[C@@H]2O[C@H](CO)[C@@H](O)[C@H](O)[C@H]2O)[C@@H](O)[C@H](O)[C@H]1O[C@@H]1O[C@H](CO)[C@@H](O)[C@H](O)[C@H]1O)C(C)(C)O)[C@H]1CC[C@@]2(C)[C@@H]3CC=C4[C@@H](CC[C@H](O[C@@H]5O[C@H](CO[C@@H]6O[C@H](CO)[C@@H](O)[C@H](O)[C@H]6O)[C@@H](O)[C@H](O)[C@H]5O)C4(C)C)[C@]3(C)[C@H](O)C[C@]12C [Mogroside V] | 20 | N | N | N | – | – | –
6 | C=C1C[C@@]23CC[C@H]4[C@@](C)(CCC[C@@]4(C)C(=O)O[C@@H]4O[C@H](CO)[C@@H](O)[C@H](O)[C@H]4O)[C@@H]2CC[C@]1(O[C@@H]1O[C@H](CO)[C@@H](O)[C@H](O[C@@H]2O[C@H](CO)[C@@H](O[C@H]4O[C@H](CO)[C@@H](O)[C@H](O)[C@H]4O)[C@H](O)[C@H]2O)[C@H]1O[C@@H]1O[C@H](CO)[C@@H](O)[C@H](O)[C@H]1O)C3 [13-[(2-O-β-D-glucopyranosyl-3-O-(4-O-α-D-glucopyranosyl)-β-D-glucopyranosyl-β-D-glucopyranosyl)oxy] kaur-16-en-18-oic acid β-D-glucopyranosyl ester] | 50 | T | T | N | – | – | –
7 | C=C1C[C@@]23CC[C@H]4[C@@](C)(CCC[C@@]4(C)C(=O)O[C@@H]4O[C@H](CO)[C@@H](O)[C@H](O)[C@H]4O[C@@H]4O[C@H](CO)[C@@H](O)[C@H](O)[C@H]4O)[C@@H]2CC[C@]1(O[C@@H]1O[C@H](CO)[C@@H](O)[C@H](O[C@@H]2O[C@H](CO)[C@@H](O)[C@H](O)[C@H]2O)[C@H]1O[C@@H]1O[C@H](CO)[C@@H](O)[C@H](O)[C@H]1O)C3 [Rebaudioside D] | 25 | N | N | N(S+) (No difference but slightly more sweet (0.5-0.75%)) | – | – | –
8 | Rebaudioside F | 25 | N | N | N(S+) (No difference but slightly more sweet (0.5-0.75%)) | – | – | –
9 | C=C1C[C@@]23CC[C@H]4[C@@](C)(CCC[C@@]4(C)C(=O)O[C@@H]4O[C@H](CO)[C@@H](O)[C@H](O)[C@H]4O)[C@@H]2CC[C@]1(O[C@@H]1O[C@H](CO)[C@@H](O)[C@H](O[C@@H]2O[C@H](CO)[C@@H](O)[C@H](O)[C@H]2O)[C@H]1O)C3 [13-[(3-O-β-D-glucopyranosyl-β-D-glucopyranosyl)oxy] kaur-16-en-18-oic acid β-D-glucopyranosyl ester] | 35 | N | N | N | – | – | –
10 | C=C1C[C@@]23CC[C@H]4[C@@](C)(CCC[C@@]4(C)C(=O)O[C@@H]4O[C@H](CO)[C@@H](O)[C@H](O)[C@H]4O)[C@@H]2CC[C@]1(O[C@@H]1O[C@H](CO)[C@@H](O)[C@H](O)[C@H]1O[C@@H]1O[C@@H](C)[C@H](O)[C@@H](O)[C@H]1O)C3 [Dulcoside A] | 50 | N | N | N | – | – | –
11 | C[C@@]12CC[C@@H]3[C@@](CC[C@H]4[C@@]3(C)CCC[C@@]4(C)C(=O)OC3OC(CO)C(O)C(O)C3O)(CC1=O)C2 (stereo partly drawn) [13-methyl-16-oxo-17-norkauran-18-oic acid β-D-glucopyranosyl ester] | – | N | N | N | 15 | – | –
12 | C=C1C[C@@]23CC[C@H]4[C@@](C)(CCC[C@@]4(C)C(=O)O)[C@@H]2CC[C@]1(O[C@@H]1O[C@H](CO)[C@@H](O)[C@H](O)[C@H]1O[C@@H]1O[C@H](CO)[C@@H](O)[C@H](O)[C@H]1O)C3 [Steviolbioside] | 50 | N | N | N | – | – | –
13 | C=C1C[C@@]23CC[C@H]4[C@@](C)(CCC[C@@]4(C)C(=O)O[C@@H]4O[C@H](CO)[C@@H](O)[C@H](O)[C@H]4O)[C@@H]2CC[C@]1(O[C@@H]1O[C@H](CO)[C@@H](O)[C@H](O)[C@H]1O[C@@H]1O[C@H](CO)[C@@H](O)[C@H](O)[C@H]1O)C3 [Stevioside] | 25 | N | N | N | – | – | –
14 | C=C1C[C@@]23CC[C@H]4[C@@](C)(CCC[C@@]4(C)C(=O)O[C@@H]4O[C@H](CO)[C@@H](O)[C@H](O)[C@H]4O)[C@@H]2CC[C@]1(O[C@@H]1O[C@H](CO)[C@@H](O)[C@H](O[C@@H]2O[C@H](CO)[C@@H](O)[C@H](O)[C@H]2O)[C@H]1O[C@@H]1O[C@H](CO)[C@@H](O)[C@H](O)[C@H]1O)C3 [Rebaudioside A] | 12.6 | N | N | N | – | – | –
